Laboratory results published in US8034826B2, “Cycloalkane[B]azaindole antagonists of prostaglandin D2 receptors” (Panmira Pharmaceuticals, LLC, priority 2008, dated 2011).

Experiments:
[1] = Plasma concentrations of the compound in mice of the allergic rhinitis model; type: in vivo; conditions: female, BALB/c, mouse, 10 mg/kg as the sodium salt, oral
Experimental: The compounds ability to inhibit allergen-induced sneezing and nasal rubbing is assessed using a mouse model of allergic rhinitis. Methods were adapted from those detailed in Nakaya, M., et al. 2006, Laboratory Investigation, 86:917-926. Female BALB/c mice (20-25 g) are immunized by an intraperitoneal injection (i.p.) of 10 μg ovalbumin (OVA) complexed with alum in a volume 0.2 mL on days 0 and 7. Fourteen days later (day 21) mice are challenged intranasally with 20 μl of a 10 mg/mL solution of OVA. The challenge period occurs daily from days 21 to day 23. Mice (5-7/group) are randomly assigned to receive either compound or vehicle and are treated by oral gavage 1 hour prior to OVA challenge. The number of sneezes and nasal rubs are counted by an independent blinded observe during a period of 8 minutes immediately following OVA challenge on days 21, 23 and […]. A significant increase in allergen-induced sneezing and nasal rubbing occurs over the 3-day challenge period. Inhibition of this effect by select compounds is determined statistically using Graphpad prism.

human DP2 receptor = target: T1, human DP2 receptor (Homo sapiens, UniProt Q9Y5Y4); experiment: DP2/CRTH2 radioligand binding assay using [3H]PGD2; conditions: membranes of HEK293 cells expressing recombinant human DP2, 1 nM [3H]PGD2; read-out: hDP2
T1 construct: expressed in transfected cells
T1 sequence (Q9Y5Y4 1-395): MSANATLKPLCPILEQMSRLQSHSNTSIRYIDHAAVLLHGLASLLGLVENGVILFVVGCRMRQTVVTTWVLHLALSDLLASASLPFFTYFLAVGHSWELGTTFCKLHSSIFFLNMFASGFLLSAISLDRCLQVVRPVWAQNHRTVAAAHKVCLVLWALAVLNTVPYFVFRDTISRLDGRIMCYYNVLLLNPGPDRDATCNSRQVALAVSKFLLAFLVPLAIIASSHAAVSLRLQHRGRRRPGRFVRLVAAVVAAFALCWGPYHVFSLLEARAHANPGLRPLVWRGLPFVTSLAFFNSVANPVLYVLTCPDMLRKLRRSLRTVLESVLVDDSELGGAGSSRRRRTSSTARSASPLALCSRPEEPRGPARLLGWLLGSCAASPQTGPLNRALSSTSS
Experimental: The ability of a compound to bind to the human DP2 receptor is assessed via a radioligand binding assay using [^3H]PGD2. HEK293 cells stably expressing recombinant human DP2 are resuspended in 10 mM Hepes, 7.4 containing 1 mM DTT, lysed and centrifuged at 75,000×g to pellet the membranes. The membranes are resuspended in 10 mM Hepes, 7.4 containing 1 mM DTT and 10% glycerol to approximately 5 mg protein/ml. Membranes (2-10 μg protein/well) are incubated in 96-well plates with 1 nM [^3H]PGD2 and test compound in Assay Buffer (50 mM Hepes, 10 mM MnCl2, 1 mM EDTA, plus or minus 0.2% human serum albumin, pH 7.4) for 60 minutes at room temperature. The reactions are terminated by rapid filtration through Whatman GF/C glass fibre filter plates. The filter plates were pre-soaked in 0.33% polyethylenimine for 30 minutes at room temperature then washed in Wash Buffer (50 mM Hepes, 0.5 M NaCl pH 7.4) prior to harvesting. After harvesting, the filter plates are washed 3 times with 1 ml cold Wash Buffer then dried. Scintillant is then added to the plates and the radioactivity retained on the filters is determined on a Packard TopCount (Perkin Elmer). Specific binding is determined as total radioactive binding minus non-specific binding in the presence of 10 μM PGD2. IC50s were determined using GraphPad prism analysis of drug titration curves.

Row | Cmax [1] [µM] | concentration at 8 h ([1]; at 8 hours, read-out: Plasma Cmin at 8 hours) [µM] | IC50 (human DP2 receptor) [µM] | Compound
1 | 0.77 | 0.12 | – | CN(C1CCc2c(c3ncccc3n2CC(=O)O)C1)S(=O)(=O)c1ccc(F)cc1 (racemic) [Compound 2, {8-[(4-fluoro-benzenesulfonyl)-methyl-amino]-6,7,8,9-tetrahydro-pyrido[3,2-b]indol-5-yl}-acetic acid]
2 | – | – | > 0.1 | O=C(O)CCn1c2c(c3ccccc31)C[C@H](NS(=O)(=O)c1ccc(F)cc1)CC2 [Ramatroban]
